Results published in PubChem BioAssay AID1963826 (Molecular Pharmacology Branch, DTP, NCI, 2024).

Tested on: 926638-142-R-J1-PDC complex spheroid viability
Assay: Anticancer human tumor 926638-142-R-J1-PDC patient-derived endometrial carcinoma cell line growth inhibition [POLQ]
Details: for IC50: curve of first compound; for viability, T/C: stronger effect = lower value
Procedure, shortened: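 Patient-derived tumour cells were co-cultured with HUVEC and mesenchymal stem cells as multicellular spheroids at 37 °C. They were treated with POLQ inhibitors (novobiocin, ART-558, RP6685) alone or combined with other agents. Top concentrations were at or near clinical Cmax (otherwise 10 microM; SN-38 at 1 microM), decreasing in half-log steps.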

[1] = second compound 0.0316 µM, first compound 0.0316 µM
[2] = second compound 0.0316 µM, first compound 0.1 µM
[3] = second compound 0.0316 µM, first compound 0.316 µM
[4] = second compound 0.0316 µM, first compound 1 µM
[5] = second compound 0.0316 µM, first compound 3.16 µM
[6] = second compound 0.0316 µM, first compound 10 µM
[7] = second compound 0.1 µM, first compound 0.0316 µM
[8] = second compound 0.1 µM, first compound 0.1 µM
[9] = second compound 0.1 µM, first compound 0.316 µM
[10] = second compound 0.1 µM, first compound 1 µM
[11] = second compound 0.1 µM, first compound 3.16 µM
[12] = second compound 0.1 µM, first compound 10 µM
[13] = second compound 0.316 µM, first compound 0.0316 µM
[14] = second compound 0.316 µM, first compound 0.1 µM
[15] = second compound 0.316 µM, first compound 0.316 µM
[16] = second compound 0.316 µM, first compound 1 µM
[17] = second compound 0.316 µM, first compound 3.16 µM
[18] = second compound 0.316 µM, first compound 10 µM
[19] = second compound 1 µM, first compound 0.0316 µM
[20] = second compound 1 µM, first compound 0.1 µM
[21] = second compound 1 µM, first compound 0.316 µM
[22] = second compound 1 µM, first compound 1 µM
[23] = second compound 1 µM, first compound 3.16 µM
[24] = second compound 1 µM, first compound 10 µM
[25] = second compound 3.16 µM, first compound 0.0316 µM
[26] = second compound 3.16 µM, first compound 0.1 µM
[27] = second compound 3.16 µM, first compound 0.316 µM
[28] = second compound 3.16 µM, first compound 1 µM
[29] = second compound 3.16 µM, first compound 3.16 µM
[30] = second compound 3.16 µM, first compound 10 µM
[31] = second compound 10 µM, first compound 0.0316 µM
[32] = second compound 10 µM, first compound 0.1 µM
[33] = second compound 10 µM, first compound 0.316 µM
[34] = second compound 10 µM, first compound 1 µM
[35] = second compound 10 µM, first compound 3.16 µM
[36] = second compound 10 µM, first compound 10 µM
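Note: spheroids exposed to drugs for one week before readout.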
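Throughout, for viability, T/C: percent viability relative to DMSO vehicle control wells set as 100%.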

Nc1ccn(C2OC(CO)C(O)C2(F)F)c(=O)n1 (centres undefined) + COC1C(OC(N)=O)C(O)C(Oc2ccc3c(O)c(NC(=O)c4ccc(O)c(CC=C(C)C)c4)c(=O)oc3c2C)OC1(C)C
IC50 (second compound 0.0316 µM): 1010 nM | IC50 (second compound 0.1 µM): 1600 nM | IC50 (second compound 0.316 µM): 470 nM | IC50 (second compound 1 µM): 924 nM | IC50 (second compound 3.16 µM): 874 nM | IC50 (second compound 10 µM): 463 nM | viability, T/C [1]: 81.7% | viability, T/C [2]: 70.2% | viability, T/C [3]: 49.4% | viability, T/C [4]: 59.7% | viability, T/C [5]: 41.4% | viability, T/C [6]: 26.2% | viability, T/C [7]: 86.2% | viability, T/C [8]: 67.3% | viability, T/C [9]: 61.6% | viability, T/C [10]: 55% | viability, T/C [11]: 50.3% | viability, T/C [12]: 26.3% | viability, T/C [13]: 75.8% | viability, T/C [14]: 61.4% | viability, T/C [15]: 47% | viability, T/C [16]: 52.4% | viability, T/C [17]: 36.8% | viability, T/C [18]: 33.1% | viability, T/C [19]: 81.3% | viability, T/C [20]: 70.7% | viability, T/C [21]: 56.6% | viability, T/C [22]: 45.6% | viability, T/C [23]: 48.7% | viability, T/C [24]: 28.2% | viability, T/C [25]: 79% | viability, T/C [26]: 62.8% | viability, T/C [27]: 55.8% | viability, T/C [28]: 51.4% | viability, T/C [29]: 45.7% | viability, T/C [30]: 25% | viability, T/C [31]: 83.3% | viability, T/C [32]: 73.8% | viability, T/C [33]: 41.7% | viability, T/C [34]: 46.9% | viability, T/C [35]: 47.1% | viability, T/C [36]: 28.2%

CC1COCCN1c1cc(C2(O)CC3CCC(C2)O3)c2cnn(-c3ccn[nH]3)c2n1 (centres undefined) + Cc1cccc(N(C)C(=O)C2C(O)CCN2c2nc(C)cc(C(F)(F)F)c2C#N)c1
IC50 (second compound 0.0316 µM): 173 nM | IC50 (second compound 0.1 µM): 220 nM | IC50 (second compound 0.316 µM): 194 nM | IC50 (second compound 1 µM): 201 nM | IC50 (second compound 3.16 µM): 143 nM | IC50 (second compound 10 µM): 198 nM | viability, T/C [1]: 102% | viability, T/C [2]: 64.7% | viability, T/C [3]: 34.5% | viability, T/C [4]: 13.3% | viability, T/C [5]: 8.43% | viability, T/C [6]: 2.27% | viability, T/C [7]: 100% | viability, T/C [8]: 79.8% | viability, T/C [9]: 35.8% | viability, T/C [10]: 12.2% | viability, T/C [11]: 6.79% | viability, T/C [12]: 1.49% | viability, T/C [13]: 88.7% | viability, T/C [14]: 67.5% | viability, T/C [15]: 37.9% | viability, T/C [16]: 11.6% | viability, T/C [17]: 9.91% | viability, T/C [18]: 1.44% | viability, T/C [19]: 85.7% | viability, T/C [20]: 71% | viability, T/C [21]: 35.8% | viability, T/C [22]: 14% | viability, T/C [23]: 7.71% | viability, T/C [24]: 1.6% | viability, T/C [25]: 85.9% | viability, T/C [26]: 61% | viability, T/C [27]: 26.1% | viability, T/C [28]: 13.9% | viability, T/C [29]: 7.14% | viability, T/C [30]: 1.53% | viability, T/C [31]: 97.7% | viability, T/C [32]: 72.9% | viability, T/C [33]: 33.5% | viability, T/C [34]: 13.2% | viability, T/C [35]: 6.57% | viability, T/C [36]: 1.3%
